Test results as given in patent US20160243136A1, “PHARMACEUTICAL FORMULATIONS CONTAINING MITOCHONDRIALLY TARGETED ANTIOXIDANTS” (Mitotech SA, priority 2013, published 2016).

Tests used:
[1] = test system: renal tubular cells (RTC); assay: In vitro inflammation model: renal tubular cells co-cultivated with bacterial lysate-activated leukocytes; type: cell-based, rat
Description: Kidneys from 1-3 day old rats were excised under aseptic conditions. The tissue was blended and dissociated by collagenase treatment (0.5%, 30 min at 37° C.). The final suspension was centrifuged for 5 min at 50 g. The pellet was resuspended in about 10 ml of DMEM/F12 (Gibco, USA) supplemented with 10% FCS (Gibco, USA) and kept for 2 min, after which the supernatant was transferred to another tube and the pellet was repeatedly resuspended. After 10 min, the renal tubules were pelleted and dissociated cells remaining in the suspension were discarded. The pellet was resuspended in DMEM/F12 with 10% FCS and seeded onto 24-well plates or onto coverslips placed in 35-mm glass-bottom Petri dishes.
E. coli strain No. 85 was cultured overnight in a cultivation medium containing 1% tryptone, 0.5% yeast extract and 1% NaCl (Sigma-Aldrich, USA). The medium, containing roughly 10^9 colony-forming units (CFU) per ml, was pelleted at 300 g for 3 min. The bacterial lysate was prepared by diluting 30 ml of an overnight (ON) culture and diluting the precipitate in 3 ml of 0.9% NaCl followed by autoclaving for 1.5 hr at 120° C.
5 ml heparinized blood collected from the jugular vein of adult male rats was carefully layered over 5 ml of Ficoll-Urografin (density of 1.077 g/cm^3), and centrifuged for 30 min at 200 g. This procedure results in erythrocyte pelleting, while the mononuclear fraction of leukocytes forms an interphase ring on the Ficoll surface, which was carefully collected. Leukocytes were transferred into another tube and centrifuged for 3 min at 200 g. The resultant pellet was resuspended in 5 ml of DMEM/F12. After cell counting in a hemocytometer, the cells were diluted to a final concentration of about 1×10^5 cells per ml.
In a two-day old renal cell culture, the medium was substituted with DMEM/F12 (400 μl per well, 1600 μl per dish), supplemented with (depending on the purpose): GSK-3β inhibitor LiCl (9 mM) (Sigma-Aldrich, USA), water-soluble antioxidant Trolox (50 μM, 100 μM) (Sigma-Aldrich, USA), MTAs 10-(6-plastoquinonyl)decyl-triphenylphosphonium (SkQ1), synthesized according to Antonenko et al. (2008) Biochemistry (Mosc) 73:1273-87), 10 nM, 100 nM), and 10-(6′-plastoquinonyl) decylrhodamine 19 SkQR1), synthesized according to Antonenko (2008), (1 nM, 10 nM, or 100 nM). Renal cells were incubated for 2 hr in this medium, followed by supplementation with leukocytes or neutrophils in DMEM/F12, or DMEM/F12, alone, in the control sample (400 μl per well, 1600 μl per dish). Simultaneously, the bacterial lysate or lipopolysaccharide (100 ng/ml, LPS, Sigma-Aldrich, USA) solution in DMEM/F12 and DMEM/F12 alone in the control sample (100 μl per well, 400 μl per dish) were added. Renal cells, leukocytes (neutrophils) were co-cultivated for 24 or 48 hr with bacterial lysate or LPS. Cell death (both necrotic and apoptotic) rate was evaluated using Annexin-V FITC Kit (Invitrogen, USA).
The ROS-sensitive fluorescent probe 2,7-DCF-DA (Molecular Probes, USA) dissolved in DMEM/F12 without bicarbonate (final concentration 10 μM) was added to renal cells (500 μl per well of 24-well plate, 2 ml per dish) and incubated for 15 min at 37° C. followed by a wash with DMEM/F12 without bicarbonate. MDA was determined as in (Mihara and Uchiyama (1978) Anal. Biochem. 86:271-8). Fluorescent probe, DAF-2-DA (Calbiochem, San Diego, Calif., USA) was used for NO determination in living cells. The procedure was the same as for 2,7-DCF-DA. The nitrite/nitrate concentration (as products of NO oxidation) in culture media was determined using Nitrite/Nitrate Assay Kit (Sigma-Aldrich, USA). TNFα was determined using the kit Rat TNFα ELISA Ready-SET-Go (Ebioscience, USA).
Renal cells were imaged with an LSM510 inverted confocal microscope (Carl Zeiss Inc., Jena, Germany) with excitation at 488 nm and emission collected at 500 nm-530 nm with a pinhole diameter of 150 μm. Images were processed using ImageJ software (NIH, Bethesda, Md., USA).

[2] = test system: Human endothelial cell line EA.hy926; assay: High-glucose endothelium damage, immunoblotting detection of VE-cadherin; type: cell-based; details: 2 nM and 20 nM SkQ1 pre-incubation 4 d; 45 mM D-glucose 2 d; vs vehicle control
From the text: Human endothelial cell line EA.hy926 (ATCC Collection; catalog number CRL-2922) was used as a model of the endothelium vessel damage occurring during inflammatory process and/or diabetes. This cell line is similar to primary HUVEC cell line (Edgell et al. (1983) PNAS, 80(12):3734-7; Edgell et al. (1990) In Vitro Cell Dev. Biol., 26(12):1167-72) and widely used as a relevant model for inflammation studies (Riesbeck et al. (1998) Clin. Vaccine Immunol., 5:5675-682).
Accordingly, human endothelial cells EA.hy926 were pre-incubated with 2 nM and 20 nM of SkQ1 solution in Dulbecco's Modified Eagle's Medium (DMEM) supplemented with 10% of fetal serum (Example 1) for 4 d. Cells were then incubated 2 d with DMEM medium containing 1% FBS and 5 mM D-glucose. The cells were then incubated 2 d with 45 mM D-glucose and were then used for immunoblotting detection of VE-cadherin.

CC1=C(C)C(=O)C(CCCCCCCCCC[P+](c2ccccc2)(c2ccccc2)c2ccccc2)=CC1=O [SkQ1, 10-(6-plastoquinonyl)decyl-triphenylphosphonium]
ROS production in renal cells (DCF fluorescence) ([1]; 10 nM, pretreatment 2 hr, co-cultivation with activated leukocytes): suppression of ROS production after co-cultivation with activated leukocytes to levels close to those observed on controls
renal cell death (Annexin V-positive) ([1]; 48 hr exposure to activated leukocytes, pre-incubation with drug): more pronounced than that afforded by the traditional water-soluble antioxidant, Trolox
VE-cadherin downregulation induced by high glucose [2]: prevents
